# In patent publication US8779235B2, “Engineering single-gene-controlled staygreen potential into plants” (Pioneer Hi-Bred International, Inc., priority 2003, dated 2014):
# Assays:
# Type in all cases: in vivo, maize
# acs6/acs6 plants [1] = test: total soluble leaf protein after 7 day dark treatment; details: watered with 100 μM ACC
# Procedure: (§1) FIG. 20 Panel A illustrates chlorophyll data, Panel B soluble protein, and Panel C Rubisco expression. The level of chlorophyll a+b (Panel A) and soluble protein (Panel B) was measured in the third oldest leaf (Leaf 3), sixth oldest leaf (Leaf 6), and ninth oldest leaf (Leaf 9) of adult wild-type (i.e., ACS6/ACS6), acs21acs2, and acs61acs6 plants following dark treatment for 7 days. Plants were watered daily. Additional acs61acs6 plants were watered daily with 100 μM ACC during the treatment. acs61acs6 leaves watered with 100 μM ACC but kept unsheathed are also shown. The average and standard deviation of leaves from three individual plants is shown. (Panel C) Western analysis of the same leaves was performed using rice anti-Rubisco antiserum. Soluble protein from leaf samples of equal fresh weight was used.
# For total protein isolation, leaves of B73 or mutant plants were collected at the indicated times, quick-frozen in liquid nitrogen and ground to a fine powder. […] Samples were centrifuged 10 min at 10,000 rpm, the supernatant removed to a new tube and the concentration determined spectrophotometrically according to the methods of Bradford (1976). See, Bradford M M (1976) A rapid and sensitive method for the quantitation of microgram quantities of protein utilizing the principle of protein-dye binding. […]
# acs6/acs6 plants [2] = test: Western analysis for Rubisco in leaves
# Procedure: as §1
# B73 leaves were collected at the indicated times and ground in liquid nitrogen to a fine powder. One ml of extraction buffer [20 mM HEPES (pH 7.6), 100 mM KCl, 10% glycerol, 1 mM PMSF] was added to approximately 0.1 g frozen powder and mixed thoroughly. Cell debris was pelleted by centrifugation at 10,000 rpm for 10 min and the protein concentration determined as described (Bradford, 1976). […] The blots were washed twice with TPBS and the signal detected typically between 1 to 15 min using chemiluminescence (Amersham Corp). […]
# acs6/acs6 plants [3] = test: dark-induced senescence of sheathed leaves, complementation of the acs6 mutant by exogenous ACC
# Procedure: To examine if exogenous ACC could complement the acs6 mutant and reverse its staygreen phenotype, the third oldest, sixth, and ninth leaf from ACS6/ACS6, acs2/acs2, and acs6/acs6 plants were subject to dark-induced senescence at 20 DAP by covering them with sheaths for 7 days. All leaves were fully green at the onset of the experiment and remained attached to the plant. acs6/acs6 plants were watered daily with water or 100 μM ACC for 7 days. Following 7 days, dark-induced senescence had initiated in wild-type (i.e., ASC6/ASC6) leaves although it had not progressed to the extent observed following a 2 week dark treatment. […] Dark-induced senescence was also observed in leaf 3 of the acs2 homozygous mutant although it was less pronounced than that observed in the corresponding wild-type leaves.
# acs6/acs6 plants [4] = test: chlorophyll a+b level in leaves after 7 day dark treatment
# Procedure: as §1
# Leaves were frozen in liquid nitrogen and ground to a fine powder. Samples of approximately 0.1 g were removed to a 1.5 ml tube and weighed. Chlorophyll was extracted 5× with 1 ml (or 0.8 ml) of 80% acetone. Individual extractions were combined and the final volume adjusted to 10 ml (or 15 ml) with additional 80% acetone. Chlorophyll content (a+b) was determined spectrophotometrically according to the methods of Wellburn (1994). […]
structure (smiles),measurement,setting,value
"NC1(C(=O)O)CC1 [ACC, 1-aminocyclopropane-1-carboxylic acid]",retention of total soluble leaf protein compared with wild-type leaves,acs6/acs6 plants [1],did not do so when watered with 100 μM ACC
same,loss of Rubisco,acs6/acs6 plants [2]; ACC-treated acs6 leaves that remained in the light,No loss of Rubisco was observed
same,loss of Rubisco,acs6/acs6 plants [2]; dark-treated acs6 leaves watered with 100 μM ACC,lost an amount of Rubisco similar to that of dark-treated B73 leaves
same,senescence of leaves that were not sheathed (visual),"acs6/acs6 plants [3]; acs6 leaves not sheathed, plants watered daily with 100 μM ACC for 7 days",did not affect acs6 leaves that were not sheathed
same,dark-induced senescence (visual),"acs6/acs6 plants [3]; acs6 leaves sheathed 7 days at 20 DAP, plants watered daily with 100 μM ACC",dark-induced senescence similar to that of wild-type leaves was observed
same,retention of chlorophyll a+b compared with wild-type leaves,"acs6/acs6 plants [4]; acs6 leaves, 7 day dark treatment, watered with 100 μM ACC",did not do so when watered with 100 μM ACC
same,loss of chlorophyll,acs6/acs6 plants [4]; unsheathed leaves of acs6 mutants watered with ACC,chlorophyll was not lost
